According to patent publication US3987197A, “3-(2'-Fluoro-4-biphenylyl)-butyric acid and salts thereof” (Boehringer Ingelheim GmbH, priority 1972, dated 1976):

Columns and labels:
in vivo = conditions: rat, po
Protocol: The therapeutic index, as a measure for the therapeutic usefulness, was calculated by forming the quotient of the LD50 -value and the ED35 -value derived from the tests for anti-exudative activity against the kaolin and carrageenin edema.

[1] = system: carrageenin edema of the hind paws of the rat; assay: carrageenin edema of the hind paw of the rat, anti-exudative effect, oral; format: in vivo; conditions: 3 h, FW 49-rats, oral 60 minutes before edema, 35% reduction of swelling three hours after provocation, graphic extrapolation, read-out: carrageenin edema ED35 per os
Protocol: (§1) The compounds were tested by standard test methods for their anti-exudativeeffects on the kaolin edema and carrageenin edema of the hind paws of the rat and for their acute toxicity by oral administration to rats.
(§2) Male FW 49-rats of an average weight of 120-150 gm were orally treated with the test compounds 30 minutes before inducement of the edema with the aid of an esophageal tube. Five hours after the provocation of the edema the averaged values of the swelling caused in the paws of the rats treated with the compounds were compared with those values measured on blind-treated control animals. By graphic extrapolation the dose leading to a 35% reduction of the swelling (ED35) was calculated from the percent reduction values measured by administration of different doses.
The provocation of the carrageenin edema was effected according to the method of Winter et al [Proc. Soc. exp. Biol. Med. 111, 544 (1962)] by subplantary injection of 0.05 ml of a 1% solution of carrageenin in a 0.85% solution of sodium chloride. The test compounds were orally administered 60 minutes before the provocation of the edema.
For the calculation of the reductive effect on the edema the values measured three hours after the provocation of the edema were used. All the other details were the same as described above in the case of the kaolin edema.

[2] = system: kaolin and carrageenin edema; assay: antiexudative effect, average of kaolin and carrageenin edema tests; format: in vivo; conditions: Rattus norvegicus, po; arithmetically averaged value from ED35 kaolin edema and ED35 carrageenin edema
Text: *arithmetically averaged value from ED35 kaolin edema and ED35

[3] = acute toxicity in the rat, oral; conditions: in vivo, male and female FW 49-rats (1:1), oral as trituration in tylose, 14 days, Litchfield and Wilcoxon, 95% confidence limits, read-out: acute toxicity in the rat LD50 per os
Protocol: as §1
After oral administration to male and female FW 49-rats (ratio 1:1) having an average body weight of 135 gm, the acute toxicity (LD50 ) was determined. The substances were administered orally as trituration in tylose.
The calculation of the LD50 -values was effected, as far as possible, according to the method of Litchfield and Wilcoxon, based on the percentage of animals which died within 14 days after administration of the different doses.

[4] = system: kaolin edema of the hind paws of the rat; assay: kaolin edema of the hind paw of the rat, anti-exudative effect, oral; format: in vivo; conditions: 5 h, male FW 49-rats, oral 30 minutes before edema, 35% reduction of swelling five hours after provocation, graphic extrapolation, read-out: kaolin edema ED35 per os
Protocol: as §1
The kaolin edema was induced according to the method of Hillebrecht [Arzneimitted-Forsch. 4, 607 (1954)] by subplantary injection of 0.05 ml of a 10% suspension of kaolin in a 0.85% sodium chloride solution. The measurement of the thickness of the paws was done by using the technique of Doepfner and Cerletti [Int. Arch. Allergy. Immunol. 12, 89 (1958)].
as §2

CC(CC(=O)O)c1ccc(-c2ccccc2F)cc1 (racemic) [A, 3-(2'-fluoro-4-biphenylyl)-butyric acid]
selectivity ratio (in vivo): 36.5 | ED35 [1]: 10.5 mg/kg | ED35 [2]: 14.8 mg/kg | LD50 at 336 h [3]: 540 mg/kg | ED35 [4]: 19 mg/kg
